According to patent US8298522B1, “Methods of modulating MUC1 expression to inhibit inflammation” (priority 2005, dated 2012):

Assays:
MUC1 transcription = assay: Trypsin-induced MUC1 transcription compared with NE; assay type: cell-based
MUC1 promoter = assay: MUC1 promoter-luciferase reporter assay in A549 cells; conditions: MUC1-pGL2b-transfected A549 cells, 100 nM NE, 24 hr
MUC1 = assay: Degradation of MUC1 in spent medium aliquots by NE (ELISA); assay type: biochemical, human; conditions: spent medium of A549 cells, 100 nM NE, 24 hr
Method: To verify the ability of NE to degrade MUC1, aliquots of a spent medium sample containing MUC1 molecules were incubated for 24 hr in the presence of NE and the amounts of MUC1 measured by ELISA.

[1] = test system: MUC1 protein in A549 cells
Method: Confluent A549 cells were incubated in the presence or absence of 5.0 μg/ml of actinomycin (AcD) or 10 μg/ml of cycloheximide (Chx) for 1 hr and either non-treated or treated for 24 hr with 100 nM of NE. MUC1 protein levels in cell lysates (A) and spent media (B) were measured by ELISA. Each bar represents the mean±SEM (n=3). […] (C) Aliquots of spent media obtained from confluent A549 cells were non-treated (0 hr) or treated for 24 hr with 100 nM NE or vehicle control and MUC1 levels in the spent media determined by ELISA. Each bar represents the mean±SEM (n=3).
A549 cells were seeded at 5.0×10^4 cells/well in 24-well plates in Dulbecco's Modified Eagle Medium (DMEM) containing 10% fetal bovine serum (FBS), 100 U/ml penicillin, and 100 μg/ml streptomycin (all from Invitrogen, Carlsbad, Calif.) and incubated at 37° C. in a humidified CO2 incubator. Confluent monolayers were washed with serum-free DMEM and treated with 100 nM (2.6 U/ml) NE or vehicle control (PBS) for 24 hr. In some experiments, the cells were pretreated for 1 hr with 5.0 μg/ml of actinomycin D or 10 μg/ml of cycloheximide prior to NE treatment. Following treatment, cell-conditioned media were collected, and the cells were washed with PBS and lysed with 500 μl/well of PBS containing 1.0% Triton X-100, 1.0% sodium deoxycholate, 1.0% protease inhibitor cocktail, and 2.0 mM phenylmethylsulfonyl fluoride (PMSF). Lysates and conditioned media were incubated for 20 min at 80° C. to inactivate residual NE, insoluble material removed by centrifugation at 14,000×g for 10 min at 4° C., and protein concentrations measured by the procedure of Bradford using bovine serum albumin as standard.
ELISA. A549 cell lysates or cell-conditioned culture media were centrifuged at 10,000×g for 10 min at 4° C., added in triplicate to 96-well ELISA plates (MaxiSorb™, Nalge Nunc, Rochester, N.Y.), and incubated overnight at 4° C. Wells were blocked for 1 hr at room temperature (about 22° C.) with PBS, pH 7.0, containing 10 mg/ml BSA and 50 mg/ml sucrose and washed with PBS containing 0.05% Tween 20 (PBS-T). The samples were reacted for 2 hr at room temperature with 200 μg/ml of primary MUC1 antibody (GP1.4), washed with PBS-T, reacted for 2 hr at room temperature with 200 μg/ml of secondary antibody (peroxidase-conjugated goat antimouse IgG) (KPL, Gaithersburg, Md.), and washed with PBS-T. Bound antibodies were detected with tetramethylbenzidine substrate (SureBlue™, KPL), the substrate reaction stopped with 1 N HCl, and absorbencies at 450 nm measured using a microplate spectrophotometer (Dexall, Gaithersburg, Md.).

MUC1 mRNA = assay: Effect of NE on MUC1 mRNA expression and stability in A549 cells (real time RT-PCR); assay type: cell-based, human
Method: Referring now to FIG. 11. […] MUC1 mRNA levels were measured by real time RT-PCR and normalized to GAPDH mRNA levels. Each data point represents the mean±SEM (n=3).
Effect of NE on MUC1 mRNA expression. A549 cells were seeded in DMEM plus 10% FBS in 24-well plates at 5.0×10^4 cells/well, cultured to confluence for 24 hr at 37° C., and treated for 24 hr with various concentrations of NE (0, 10, 25, 50, 100, or 150 nM) or vehicle control. […] At the end of each chase period, the cells were washed with PBS and MUC1 transcripts quantified by real time RT-PCR.
Real time RT-PCR. Total RNA was isolated using RNeasy (Qiagen, Valencia, Calif.) and 2.0 μg was reverse transcribed using the iScript cDNA Synthesis kit (BioRad, Hercules, Calif.) in a total volume of 20 μl. Real time PCR was carried out using the Taqman probes and iQ™ Supermix (BioRad) according to the manufacturer's instructions. Briefly, 2.0 μl of cDNA or control plasmid was used as template for amplification in the iCycler (BioRad) with 200 nM of MUC1 or GAPDH (internal control) primers and probes. […] The CT value was defined as the number of PCR cycles required for the specific fluorescence signal to exceed the detection threshold value set by the software installed in the iCycler. […] The levels of MUC1 and GAPDH mRNAs were calculated from the standard curves and the expression of MUC1 transcripts was normalized to GAPDH transcripts.

[2] = test system: Sp1 binding to the −99/−90 segment of the MUC1 promoter; assay: EMSA of Sp1 binding to the MUC1 promoter segment; design: species or system human; conditions: A549 nuclear extracts, 100 nM NE 0-120 min
Method: Referring now to FIG. 16, NE enhances the binding of Sp1 to the −99/−90 segment in the MUC1 promoter. Confluent A549 cells were treated with vehicle control (A) or 100 nM NE (B) for 0, 10, 20, 30, 60, or 120 min. Cells were lysed and nuclear extracts were incubated with or without 100-fold molar excess of unlabeled probe, poly(dIdC) as a non-specific competitor, or Sp1 antibody for 30 min on ice, and then incubated with a [γ-^32P]-labeled oligonucleotide corresponding to the human MUC1 promoter between nucleotides −104 and −83. DNA-protein complexes were resolved on 4.5% polyacrylamide gels and analyzed by autoradiography.
Electrophoretic mobility shift assay (EMSA). Confluent A549 cells were treated with 100 nM NE for 0, 10, 20, 30, 60, or 120 min. Following treatment, nuclear extracts were prepared as previously described (31). […]
Protein concentrations were measured by the procedure of Bradford (8). […] The DNA-protein complexes were resolved on 4.5% polyacrylamide gels and analyzed by autoradiography as described in Lee et al. 2004, Differential expression of mu-opioid receptor gene in CXBK and B6 mice by Sp1, Mol Pharmacol 66: 1580-1584.

Substance | activity in inducing MUC1 transcription relative to that of NE (MUC1 transcription) | MUC1 promoter luciferase activity compared with vehicle control (MUC1 promoter) | MUC1 remaining in spent medium aliquots after incubation with NE (MUC1) | MUC1 in spent media compared with the control group ([1]; A549 cells, 100 nM NE 24 hr, with or without AcD or Chx pretreatment) | increase of MUC1 levels in cell lysates compared with 24 hr control ([1]; confluent A549 cells, 100 nM NE, 24 hr) | effect on MUC1 mRNA stability (MUC1 mRNA; 100 nM NE 24 hr, chase with 5.0 μg/ml actinomycin D 0-24 hr) | MUC1 mRNA levels with increasing doses and time (MUC1 mRNA; NE 0-150 nM, real time RT-PCR) | time of maximum Sp1 binding to the MUC1 promoter segment in the presence of NE [2]
Trypsin | less than 10% |  |  |  |  |  |  | 
neutrophil elastase |  | significantly higher luciferase activity | no detectable amounts of MUC1 | 45% | 33% | does not alter MUC1 mRNA stability | progressively higher MUC1 mRNA levels | 60 min
